From patent US20080020014A1, “Implantable devices containing nuclear receptor ligands for the treatment of vascular and related disorders” (priority 2006, published 2008)

Assays:
PPARs = details: cited from earlier work
rat carotid arteries [1] = details: balloon-denuded rat carotid arteries; cited from earlier work
[2] = Drug-release rate of Example 3 stents in phosphate-buffered saline with 1 mass % sodium dodecyl sulfate, pH 7.4, 37° C., HPLC; assay type: physicochemical
Description: A drug-polymer layer comprising 17-β estradiol was applied onto a stent in the following manner. A first composition was prepared by mixing the following components: • (a) about 2.0 mass % of EVAL; and • (b) the balance, a mixture of solvents, DMAC and ethanol, in a ratio of DMAC to ethanol of about 70:30 by mass.
The first composition was applied onto the surface of a bare 13 mm TETRA stent (available from Abbott Vascular Corp.) by spraying and dried to form a primer layer. A spray coater having an EFD 7803 spray valve with 0.014 inch fan nozzle with a VALVEMATE 7040 control system (manufactured by EFD Inc. of East Providence, R.I) was used. The fan nozzel was maintained at about 60° C. with a feed pressure of about 0.2 atm (about 3 psi) and an atomization pressure of about 1.35 atm (about 20 psi). An average of about 19 micrograms (μg) per coating pass was applied and an average total of about 62 μg of the wet coating was applied.
The primer layer was baked at about 140° C. for about one hour, yielding a layer with an average total amount of solids of about 61 μg, corresponding to an average thickness on the stent of 0.65 μm. “Solids” means the amount of dry residue deposited on the stent after all volatile organic compounds (e.g., the solvent) have been removed.
A second composition was prepared by mixing the following components: • (a) about 2.0 mass % of EVAL; • (b) about 0.7 mass % 17-β estradiol; and • (c) the balance, a mixture of solvents, DMAC and ethanol, in a ratio of DMAC to ethanol of about 70:30 by mass.
The second composition was applied onto the dried primer layer to form a drug-polymer polymer layer using the same spraying technique and equipment used for the primer layer. […] of the wet coating was applied, followed by drying at about 50° C. for about 2 hours. The total amount of solids of the drug-polymer layer was about 494 μg, corresponding to an average thickness on the stent of about 5.3 μm.
A third, topcoat composition was prepared by mixing the following components: • (a) about 1.2 g of a 10 mass % solution of KYNAR-FLEX 2800 in acetone; • (b) about 1.89 g of additional acetone; • (c) about 5.94 g of cyclohexanone; and • (d) about 2.97 g of AMS FLUX REMOVER.
The topcoat composition was applied by spraying using an EFD 7803 spray valve with 0.014 inch fan nozzle to form a topcoat layer, followed by drying. The nozzle temperature was at ambient temperature with a feed pressure of about 0.2 atm (3 psi) and an atomization pressure of about 1 atm (15 psi). The dryer temperature was at ambient temperature with a dryer air pressure of about 2.7 atm (40 psi). An average of about 5 μg per coating pass was applied and an average total of about 60 μg of wet coating was applied. The topcoat layer was baked at about 50° C. for two hours, yielding a total amount of solids of about 55 μg, corresponding to a thickness of about 0.38 μm.
Three stents coated according to this example were tested for their drug-release rate. The stents were immersed in individual, stirred vessels containing a phosphate-buffered saline solution that included about 1 mass % of sodium dodecyl sulfate. […] The amount of 17-β estradiol released was determined at measured intervals of time by HPLC. […] There was an initial small burst of 17-β estradiol during the first 20 hours, after which the release rate became approximately linear. Specifically, about 18% of 17-β estradiol was released after 10 hr, 25% after 20 hr, 30% after 30 hr, 35% after 40 hr, 40% after 50 hr, 43% after 60 hr, and 45% after 70 hr.

atherosclerosis = details: through liver X receptors (LXR); cited from earlier work
[3] = test system: vascular smooth muscle cell; details: cited from earlier work
[4] = test system: collagenase gene expression at AP-1 binding sites; details: cited from earlier work
rat carotid arteries [5] = details: after balloon injury to rat carotid arteries; cited from earlier work
rabbit femoral arteries = details: 28 days after angioplasty; cited from earlier work
[6] = test system: retinoic acid receptors (RARs); details: cited from earlier work
[7] = in blood; may not happen in tissue; listed as Tazarotene; cited from earlier work

Compound | PPAR subtypes activated (PPARs) | also measured
9-(R/S) hydroxyoctadecadienoic acid [9-(R/S) HODE] | γ | –
CCCCC[C@H](O)/C=C/C=C\CCCCCCCC(=O)O (racemic) [13-(R/S) HODE] | γ | –
CCCCCCCCCCCCCCC(Br)C(=O)O (stereo not shown) [2-bromopalmitate] | α, δ | –
CCCCC/C=C\C/C=C\C=C\[C@H](O)C/C=C\CCCC(=O)O [8-(R) HETE, 8-(R)-hydroxyeicosatetaenoic acid] | α, γ | –
CCCCC/C=C\C/C=C\C=C\[C@@H](O)C/C=C\CCCC(=O)O [8-(S) HETE] | α, γ | –
CCC=CCC=CCC=CC=CC(O)CC=CCCCC(=O)O (stereo not shown) [8-HEPE, 8-hydroxyeicosapentaenoic acid] | α | –
CCCCCC=CC=CC(=O)CCCCCCCC(=O)O [9-oxo ODE, 9-oxo octadecadienoic acid] | γ | –
CCCCC/C=C\C[C@H](O)/C=C/C=C\C/C=C\CCCC(=O)O [12-HETE] | α | –
CCCCC[C@@H](/C=C/C=C\CCCCCCCC(=O)O)OO [13-(S) HpODE, 13-(S) hydroperoxyoctadecadienoic acid] | γ | –
CC1=C(/C=C/C(C)=C/C=C/C(C)=C\C(=O)O)C(C)(C)CCC1 [13-cis retinoic acid] | – | intimal thickening (rat carotid arteries [1]): suppressed; vessel remodeling (rat carotid arteries [1]): increased
CCCCCC(=O)/C=C/C=C\CCCCCCCC(=O)O [13-oxo ODE] | γ | –
CCCCC[C@H](O)/C=C/C=C\C/C=C\C/C=C\CCCC(=O)O [15-HETE] | γ | –
CCCCC/C=C/C=C1/C(=O)C=C[C@@H]1C/C=C\CCCC(=O)O [15d-PGJ2, 15-deoxy-Δ^12,14-PGJ2] | α, δ, γ | –
C[C@]12CC[C@@H]3c4ccc(O)cc4CC[C@H]3[C@@H]1CC[C@@H]2O [17-β estradiol] | – | 17-β estradiol released ([2]; after 10 hr, EVAL drug-polymer layer, KYNAR-FLEX 2800 topcoat): about 18%; 17-β estradiol released ([2]; after 20 hr): ~25%; 17-β estradiol released ([2]; after 30 hr): ~30%; 17-β estradiol released ([2]; after 40 hr): ~35%; 17-β estradiol released ([2]; after 50 hr): ~40%; 17-β estradiol released ([2]; after 60 hr): ~43%; 17-β estradiol released ([2]; after 70 hr): ~45%
CCCCCC#CCC#CCC#CCC#CCCCC(=O)O [ETYA, eicosatetraynoic acid] | α | –
CC(C)(Sc1ccc(CCN(CCCCC2CCCCC2)C(=O)NC2CCCCC2)cc1)C(=O)O [GW-7647] | α | atherosclerosis and formation of microphage-forming cells (atherosclerosis): inhibited

Compound | PPAR subtypes activated (PPARs) | also measured
CCCCC/C=C\C[C@@H](O)/C=C/C=C/C=C\[C@@H](O)CCCC(=O)O [LTB4] | α | –
CCCCC[C@H](O)/C=C/C1=C(C/C=C\CCCC(=O)O)C(=O)CC1 [PGB2] | α, δ, γ | –
CCCCC[C@H](O)/C=C/[C@H]1C(=O)C=C[C@@H]1C/C=C\CCCC(=O)O [PGJ2, prostaglandin J2] | α, δ, γ | –
CCC/C=C/C/C=C/C=C/C=N/NN=O [Triacsin C] | α | –
Cc1cccc(Nc2cc(Cl)nc(SCC(=O)O)n2)c1C [WY-14643] | α, δ, γ | –
CC1=C(/C=C/C(C)=C/C=C/C(C)=C/C(=O)O)C(C)(C)CCC1 [all-trans retinoic acid] | – | vascular smooth muscle cell proliferation [3]: inhibited; intimal thickening (rat carotid arteries [1]): suppressed; vessel remodeling (rat carotid arteries [1]): increased; collagenase gene expression at AP-1 binding sites [4]: inhibited; favorable geometric remodeling (rat carotid arteries [5]): promoted; neointimal formation (rat carotid arteries [5]): reduced
CCCCC/C=C\C/C=C\C/C=C\C/C=C\CCCC(=O)O [arachidonic acid] | α, δ, γ | –
CC/C=C\C/C=C\C/C=C\C/C=C\C/C=C\C/C=C\CCC(=O)O [docahexanoic acid] | α, δ, γ | –
CCCCC/C=C\C/C=C\CCCCCCCC(=O)O [linoleic acid] | α, δ | –
CCCCCCCCCSCC(=O)O [nonythioacetic acid] | α | –
CCCCC[C@H](O)/C=C/[C@@H]1[C@H]2C/C(=C/CCCC(=O)O)O[C@H]2C[C@H]1O [prostacyclin (PGI2), prostacyclin] | α, δ, γ | –
CC1=C(/C=C/C(C)=C/C=C/C(C)=C/CO)C(C)(C)CCC1 [retinol] | – | internal and external elastic lamina (rabbit femoral arteries): larger
CCOC(=O)c1ccc(C#Cc2ccc3c(c2)C(C)(C)CCS3)nc1 [tazarotene] | – | Receptor specificity [6]: specific for retinoic acid receptors (RARs); Pharmacokinetics: de-esterification / metabolism to tazarotenic acid [7]: rapidly metabolized to tazarotenic acid
CCCCCCCCCCCCCCC1(C(=O)O)CO1 (stereo not shown) [tetradecylglycidic acid] | α, δ | –
CCCCCCCCCCCCCCSCC(=O)O [tetradecythioacetate] | α | –
clofibrates | α, δ, γ | –
